Reference: US20090312250A1 (POSTECH ACADEMY-INDUSTRY FOUNDATION, priority 2006, published 2009)

How the values were obtained:
[1] = system: MIN6 cells; assay: [Ca2+]i measurement in MIN6 cells (Fluo-3 AM, confocal microscope); assay type: cell-based, mouse
Procedure: Changes in intracellular Ca2+ levels were monitored using a Ca2+-sensitive dye under a confocal microscope. Cells were loaded with […] Fluo-3 AM for 40 min at room temperature. After washing with Krebs-Ringer bicarbonate (KRB; 129 mM NaCl, 5 mM NaHCO3, 4.8 mM KCl, 1.2 mM KH2PO4, 1.0 mM CaCl2, 1.2 mM MgSO4, 2.7 mM glucose, and 10 mM HEPES, pH 7.4) buffer, the cells were further incubated for 15 min in the absence of Fluo-3 AM to de-esterify the dye. To exclude the possible effects of dye loading, the present inventors normalized levels with saponin at the end of the experiments. To normalize, the present inventors measured the residual fluorescence (Fo) at the end of the experiment, and subtracted that from the fluorescence under experimental conditions (F). Excitation of Fluo-3 AM was performed at 488-nm by an argon laser, and the emission range was 515-nm. Images were captured on an inverted confocal microscope (Zeiss LSM 510 Meta, Oberkochen, Germany) with a 20× objective lens. The MIN6 cells were plated onto glass dishes or 24-well plates and grown for 24 h. The cells were washed twice with KRB supplemented with 0.2% BSA, and then incubated for 60 min at 37° C. in the KRB solution. In FIG. 2A, at the end of incubation, the solutions were replaced with fresh KRB containing Fluo-3 AM dissolved (1 mg/ml) in DMSO, and incubated for 1 h. […] Images were captured on an inverted confocal microscope with a 20× objective lens. To normalize, the present inventors measured the residual fluorescence (Fo) at the end of the experiment, and subtracted that from the fluorescence under experimental conditions (F). The data shown are the mean±S.E., n=7.

[2] = system: ICR mice; assay: Plasma insulin levels in ICR mice after intravenous injection; assay type: in vivo, mouse; settings: glucose 0.5 g/kg
Procedure: (§1) Measurement of Plasma Glucose and Plasma Insulin Levels: 7- to 8-week-old male ICR mice were purchased from Hyochang Science (Seoul, Korea). C57BLKSJ-db/db mice were purchased from SLC (Japan). […] Concentrations of plasma glucose were measured by the glucose oxidase method with a portable glucose meter (Gluco-Dr, Korea). Plasma was separated by centrifugation and the plasma insulin assay was performed using a RIA kit. Animal care was conducted in accordance with our institution's guidelines.

[3] = system: MIN6 cells; assay: Insulin secretion assay in MIN6 cells; assay type: cell-based, mouse; settings: for effect on EGF-induced insulin secretion: pre-treatment, then 15 nM EGF for 1 min, butanols 0.4%, 10 min
Procedure: Cell Culture The mouse insulin-producing cells MIN6m9 provided by Dr. Susumu Seino (Division of Cellular and Molecular Medicine, Kobe University Graduate School of Medicine, Kobe, Japan) were used between passages 19 and 25 and cultured in DMEM containing 25 mM glucose, 10 mM HEPES, 10% (v/v) fetal calf serum, 50 IU/ml penicillin, and 50 μg/ml streptomycin at 37° C. in a humidified CO2-controlled (5%) incubator. MIN6 cells were transfected using LipofectAMINE, as described previously (Kim et al., J Immunol 163:5462-5470, 1999) Transfection efficiency is about 30-40% by using LipofectAMINE.
(§2) Insulin Secretion Assay: Batches of 10-15 isolated islets or 1×10^6 cells/well grown in 12- or 24-well plates were washed twice with KRB supplemented with 0.2% bovine serum albumin (BSA), and then incubated for 60 min at 37° C. in the KRB solution. We used same number of islets in a same set of experiment. At the end of incubation, the solutions were replaced with fresh KRB containing test reagents and incubated for the designated time. The incubation medium was sampled and centrifuged to remove cells, and the supernatant was assayed for insulin with a radioimmunoassay (RIA) kit (Linco, St. Louis, Mo.).
The MIN6 cells were plated onto 24-well plates and grown for 24 h. The cells were washed twice with KRB supplemented with 0.2% BSA, and then incubated for 60 min at 37° C. in the KRB solution.
The incubation medium was sampled and centrifuged to remove cells, and the supernatant was assayed for insulin levels. The data shown are the mean±S.D. from two independent assays by duplicate. *, P<0.05 compared with not treated (NT) cells.
The incubation medium was sampled and centrifuged to remove cells, and the supernatant was assayed for insulin levels. The data shown are the mean±S.D. from two independent assays by duplicate. *, P<0.05 compared with not treated cells.
The incubation medium was sampled and centrifuged to remove cells, and the supernatant was assayed for insulin levels. The data shown are the mean±S.D. from two independent assays by duplicate. * or **, P<0.05 compared with 2.7 or 11 mM glucose-treated cells.
The incubation medium was sampled and centrifuged to remove cells, and the supernatant was assayed for insulin levels.
In FIG. 3B, the MIN6 cells were plated onto 24-well plates and grown for 24 h. The cells were washed twice with KRB supplemented with 0.2% BSA, and then incubated for 60 min at 37° C. in the KRB solution. […] The incubation medium was sampled and centrifuged to remove cells, and the supernatant was assayed for insulin levels.

[4] = system: PLD; assay: PLD activity assay in MIN6 cells (PBt formation); assay type: cell-based, mouse; settings: for effect on EGF-induced PLD activity: 30 min pre-incubation, then 15 nM EGF for 1 min
Procedure: PLD Activity Assay in Cells: Cells grown in 6-well plates were washed twice with KRB, and then labeled with [3H]myristic acid for 4 h at 37° C. in the KRB solution. PLD activity was assayed by measuring the formation of phosphatidylbutanol (PBt) (Kim J H et al., J Immunol 163:5462-5470, 1999). The intensities of PBt spots in the presence of 0.4% 1-butanol were measured, and PLD activity was obtained by subtracting the corresponding intensities of spots obtained in the absence of 1-butanol.
In FIG. 3A, the MIN6 cells were plated onto 6-well plates and grown for 24 h. The cells were washed twice with KRB, and then incubated for 4 h at 37° C. in the KRB solution in the presence of [^3H]myristic acid. […] The data shown are the mean±S.D. from two independent assays by duplicate.
In FIG. 4A, the MIN6 cells were plated onto 6-well plates and grown for 24 h. The cells were washed twice with KRB, and then incubated for 4 h at 37° C. in the KRB solution in the presence of [^3H]myristic acid. […] The intensities of PBt spots after 1 min accumulation in the presence of 1-butanol were measured, and results were obtained by subtracting the corresponding intensities of spots obtained in the absence of 1-butanol. The data shown are the mean±S.D. from two independent assays by duplicate. *, P<0.05 compared with EGF-treated cells.

[5] = system: mouse pancreatic islets; assay: Insulin secretion assay in mouse pancreatic islets; assay type: cell-based; settings: 1 min treatment
Procedure: as §2
To prepare mouse pancreatic islets, pancreatic islets were isolated from 7- to 8-week-old male BALB/c mice (Hyochang Science, Korea), as described previously (Jonas J C, et al., Diabetes 47:1266-1273, 1998). Isolated islets were transferred onto a 12 well plate, with 10-15 islets per well. We used same number of islets in a same set of experiment. The islets were maintained for up to 2 days in RPMI1640 medium containing 5 mM glucose and 10% fetal calf serum, and supplemented with 100 µg/ml streptomycin and 100 U/ml penicillin.
The mouse pancreatic islets were plated onto 12-well plates and grown for 24 h. The islets were washed twice with KRB supplemented with 0.2% BSA, and then incubated for 60 min at 37° C. in the KRB solution. […]

[6] = system: C57BLKSJ-db/db mice; assay: Plasma insulin levels in obese db/db mice after intravenous injection; assay type: in vivo, mouse; settings: EGF 50 μg/kg intravenous, 10 min after injection
Procedure: as §1
Plasma insulin levels before and 10 min after injection were compared. […] All animals had free access to water. Animal care was conducted in accordance with our institution's guidelines.

[7] = system: C57BLKSJ-db/db mice; assay: Plasma glucose levels in obese db/db mice after intravenous injection; assay type: in vivo, mouse; settings: EGF 50 μg/kg intravenous
Procedure: as §1

[8] = system: RINm5F; assay: Insulin release in RINm5F cell line (data not shown); assay type: cell-based

O=C[C@H](O)[C@@H](O)[C@H](O)[C@H](O)CO [glucose, reference compound]
time required for Ca2+ influx ([1]; data not shown): 3 to 4 min
plasma insulin levels [2]: increased plasma insulin levels

CC(C)(C)O [t-butanol, reference compound]
effect on EGF-induced insulin secretion ([3]; MIN6 cells): but not by t-butanol treatment

CCCCO [1-butanol, reference compound]
effect on EGF-induced insulin secretion ([3]; MIN6 cells): inhibited

Epidermal growth factor [EGF]
time to PLD activation by EGF stimulation ([4]; 15 nM EGF): ≤ 2 min
insulin secretion ([5]; 15 nM EGF): rapidly increased insulin secretion
specificity of the insulin secretion effect among growth factors ([5]; data not shown): specific among various growth factors
insulin levels at basal concentration of glucose ([3]; 2.7 mM glucose, 15 or 30 nM EGF, 5 min): increased insulin levels
glucose-induced insulin release at high glucose levels ([3]; 11 mM glucose, 15 or 30 nM EGF, 5 min): additively increased glucose-induced insulin release
effective time of EGF treatment for insulin secretion ([3]; MIN6 cells, 15 nM EGF): 1 to 2 min
kinetics of stimulation of insulin secretion ([3]; MIN6 cells, 15 nM EGF compared with 11 mM glucose): kinetics more rapid than glucose
effective concentration of EGF for insulin secretion ([3]; MIN6 cells, 1 min incubation): 1.5 to 15 nM
insulin secretion ([3]; MIN6 cells, 1 min treatment): significantly increased insulin secretion
extracellular Ca2+ influx ([1]; MIN6 cells, 15 nM EGF): stimulated extracellular Ca2+ influx
plasma insulin levels [6]: increased plasma insulin levels
plasma insulin levels [2]: increased plasma insulin levels
plasma glucose [7]: reduced plasma glucose
insulin release [8]: could stimulate insulin release

CC(=O)OCOC(=O)CN(CC(=O)OCOC(C)=O)c1ccccc1OCCOc1ccccc1N(CC(=O)OCOC(C)=O)CC(=O)OCOC(C)=O [BAPTA/AM, 1,2-Bis(2-aminophenoxy)ethane-N,N,N′,N′-tetraacetic acid tetrakis (acet-oxymethyl ester)]
effect on EGF-induced PLD activity [4]: inhibited most of the PLD activity

O=C(O)CN(CCOCCOCCN(CC(=O)O)CC(=O)O)CC(=O)O [EGTA]
effect on EGF-induced PLD activity [4]: inhibited most of the PLD activity
effect on EGF-stimulated extracellular Ca2+ influx ([1]; 30 min pre-incubation, then 15 nM EGF): reduced
